Measurements from patent publication US7842808B2, “Anti-migraine spirocycles” (Bristol-Myers Squibb Company, priority 2002, dated 2010).
pIC50: −log10 of the molar value.

target: T1, CGRP receptor (SK-N-MC cell membranes) (Homo sapiens, UniProt O60894+Q16602); test: CGRP Binding Assay ([125I]-CGRP radioligand binding, SK-N-MC homogenate); settings: displacement of [125I]-CGRP, SK-N-MC homogenate; read-out: CGRP binding IC50
T1 construct: endogenous in cells; host or cells: SK-N-MC cells (membrane homogenate)
Procedure: Tissue Culture. SK-N-MC cells were grown at 37° C. in 5% CO2 as a monolayer in medium consisting of MEM with Earle's salts and L-glutamine (Gibco) supplemented with 10% fetal bovine serum (Gibco).
Cell Pellets. […] The cells were transferred from plates to polypropylene tubes (16×100 mm) and homogenized using a polytron. Homogenates were centrifuged at 32,000×g for 30 min. The pellets were resuspended in cold hypotonic lysis buffer with 0.1% mammalian protease inhibitor cocktail (Sigma) and assayed for protein concentration. The SK-N-MC homogenate was then aliquoted and stored at −80° C. until needed.
Radioligand Binding Assay. The compounds of invention were solubilized and carried through serial dilutions using 100% DMSO. Aliquots from the compound serial dilutions were further diluted 25 fold into assay buffer (50 mM Tris-Cl pH 7.5, 5 mM MgCl2, 0.005% Triton X-100) and transferred (volume 50 μl) into 96 well assay plates. […] SK-N-MC pellets were thawed, diluted in assay buffer with fresh 0.1% mammalian protease inhibitor cocktail (Sigma), and homogenized again. SK-N-MC homogenate (5 μg/well) was added in a volume of 100 μl. The assay plates were then incubated at room temperature for 2 h. Assays were stopped by addition of excess cold wash buffer (20 mM Tris-Cl pH 7.5, 0.1% BSA) immediately followed by filtration over glass fiber filters (Whatman GF/B) previously soaked in 0.5% PEI. Non-specific binding was defined with 1 μM beta-CGRP. Protein bound radioactivity was determined using a gamma or scintillation counter.

T1 sequence (Q16602 23-461): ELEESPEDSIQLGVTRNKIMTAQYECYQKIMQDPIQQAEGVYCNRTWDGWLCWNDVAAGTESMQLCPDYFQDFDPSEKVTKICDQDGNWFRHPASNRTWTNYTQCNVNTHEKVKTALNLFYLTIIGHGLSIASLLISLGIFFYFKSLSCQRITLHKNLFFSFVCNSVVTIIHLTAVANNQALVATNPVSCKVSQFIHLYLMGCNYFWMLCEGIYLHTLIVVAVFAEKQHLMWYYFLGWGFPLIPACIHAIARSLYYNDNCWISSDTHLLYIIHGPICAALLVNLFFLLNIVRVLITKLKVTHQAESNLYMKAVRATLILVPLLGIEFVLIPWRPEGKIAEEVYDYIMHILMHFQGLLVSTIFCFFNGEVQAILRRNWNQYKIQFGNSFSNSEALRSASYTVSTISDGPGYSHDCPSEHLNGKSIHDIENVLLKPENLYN
T1 sequence (O60894 27-148): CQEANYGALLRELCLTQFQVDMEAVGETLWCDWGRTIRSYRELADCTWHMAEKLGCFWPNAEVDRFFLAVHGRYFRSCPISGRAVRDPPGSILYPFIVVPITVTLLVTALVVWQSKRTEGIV

| pIC50 | SMILES |
| --- | --- |
| 6.00 to 7.00 | O=C(N[C@@H](CC(=O)N1CCC(N2Cc3ccccc3NC2=O)CC1)C(=O)N1CCC(N2CCCCC2)CC1)c1ccc(Cl)c(Cl)c1 [Example 111] |
| 6.00 to 7.00 | O=C(Nc1c(F)cccc1F)N[C@@H](CC(=O)N1CCC(N2Cc3ccccc3NC2=O)CC1)C(=O)N1CCC(N2CCCCC2)CC1 [Example 163] |
| > 8.00 | Cc1cc(CC(NC(=O)N2CCC3(CC2)OC(=O)Nc2ccccc23)C(=O)N2CCN(c3ccncc3)CC2)cc2cn[nH]c12 (racemic) [Example 29, (±)-1′,2′-Dihydro-2′-oxospiro-[4H-3′,1-benzoxazine-4,4′-piperidine-1-carboxylic acid[1-(7-methyl-1H-indazol-5-ylmethyl)-2-oxo-2-(4-pyridin-4-yl-piperazin-1-yl)-ethyl]-amide] |
| 6.00 to 7.00 | COc1ccc(CC(=O)N[C@@H](CC(=O)N2CCC(N3Cc4ccccc4NC3=O)CC2)C(=O)N2CCC(N3CCCCC3)CC2)cc1OC [Example 109] |
| 6.00 to 7.00 | O=C(Nc1ccc(Br)cc1)N[C@@H](CC(=O)N1CCC(N2Cc3ccccc3NC2=O)CC1)C(=O)N1CCC(N2CCCCC2)CC1 [Example 179] |
| 6.00 to 7.00 | CCc1cc(CC(NC(=O)N2CCC(N3Cc4ccccc4NC3=O)CC2)C(=O)OC)cc2cn[nH]c12 (racemic) [Example 44, (±)-3-(7-Ethyl-1H-indazol-5-yl)-2-{[4-(2-oxo-1,4-dihydro-2H-quinazolin-3-yl)-piperidine-1-carbonyl]-amino}-propionic acid methyl ester] |
| > 8.00 | Cc1cc(CC(NC(=O)N2CCC(N3Cc4ccccc4NC3=O)CC2)C(=O)O[C@H](C)c2ccncc2)cc2cn[nH]c12 (stereo partly drawn) [Example 41e, 3-(7-Methyl-1H-indazol-5-yl)-2-{[4-(2-oxo-1,4-dihydro-2H-quinazolin-3-yl)-piperidine-1-carbonyl]-amino}-propionic acid (R)-1-pyridin-4-yl-ethyl ester] |
| 6.00 to 7.00 | O=C(Cc1cccs1)N[C@@H](CC(=O)N1CCC(N2Cc3ccccc3NC2=O)CC1)C(=O)N1CCC(N2CCCCC2)CC1 [Example 117] |
| 6.00 to 7.00 | O=C(N[C@@H](CC(=O)N1CCC(N2Cc3ccccc3NC2=O)CC1)C(=O)N1CCC(N2CCCCC2)CC1)c1cccc(Cl)c1 [Example 129] |
| 6.00 to 7.00 | O=C(N[C@@H](CC(=O)N1CCC(N2Cc3ccccc3NC2=O)CC1)C(=O)N1CCC(N2CCCCC2)CC1)N[C@@H]1C[C@H]1c1ccccc1 [Example 154] |
| 6.00 to 7.00 | COC(=O)C(Cc1cc(C)c2[nH]ncc2c1)NC(=O)N1CCC2(CC1)NC(=O)Nc1ccccc12 (centres unmarked) [Example 13, 3-(7-Methyl-1H-indazol-5-yl)-2-[2′,3′-dihydro-2′-oxospiro-(piperidine-4,4′-(1H)-quinazoline)carbonylamino]-propionic acid methyl ester] |
| 6.00 to 7.00 | O=C(NC(Cc1ccc(=O)[nH]c1)C(=O)N1CCC(N2CCCCC2)CC1)N1CCC(N2Cc3ccccc3NC2=O)CC1 (racemic) [Example 60, (±)-4-(2-Oxo-1,4-dihydro-2H-quinazolin-3-yl)-piperidine-1-carboxylic acid[2-[1,4′]bipiperidinyl-1′-yl-2-oxo-1-(6-oxo-1,6-dihydro-pyridin-3-ylmethyl)-ethyl]-amide] |
| 6.00 to 7.00 | O=C(NCc1ccccc1)N[C@@H](CC(=O)N1CCC(N2Cc3ccccc3NC2=O)CC1)C(=O)N1CCC(N2CCCCC2)CC1 [Example 145] |
| 6.00 to 7.00 | CCOC(=O)c1ccc(NC(=O)N[C@@H](CC(=O)N2CCC(N3Cc4ccccc4NC3=O)CC2)C(=O)N2CCC(N3CCCCC3)CC2)cc1 [Example 182] |
| < 6.00 | O=C(NC(Cn1ccc(OCc2ccccc2)cc1=O)C(=O)N1CCC(N2CCCCC2)CC1)N1CCC(N2Cc3ccccc3NC2=O)CC1 (racemic) [Example 51, (±)-4-(2-Oxo-1,4-dihydro-2H-quinazolin-3-yl)-piperidine-1-carboxylic acid[1-(4-benzyloxy-2-oxo-2H pyridin-1-ylmethyl)-2-[1,4′]bipiperidinyl-1′-yl-2-oxo-ethyl]-amide] |
| 6.00 to 7.00 | Cc1ccc(NC(=O)N[C@@H](CC(=O)N2CCC(N3Cc4ccccc4NC3=O)CC2)C(=O)N2CCC(N3CCCCC3)CC2)cc1Cl [Example 186] |

Second part, the compound before the results:

| SMILES | pIC50 |
| --- | --- |
| O=C(NC(Cc1ccc2[nH]ncc2c1)C(=O)N1CCN(C/C=C/c2ccccc2)CC1)N1CCC(N2Cc3ccccc3NC2=O)CC1 (centres unmarked) [Example 40j] | < 6.00 |
| O=C(Nc1cccc(C(F)(F)F)c1)N[C@@H](CC(=O)N1CCC(N2Cc3ccccc3NC2=O)CC1)C(=O)N1CCC(N2CCCCC2)CC1 [Example 153] | 6.00 to 7.00 |
| O=C(COc1ccc(Cl)cc1)N[C@@H](CC(=O)N1CCC(N2Cc3ccccc3NC2=O)CC1)C(=O)N1CCC(N2CCCCC2)CC1 [Example 112] | 6.00 to 7.00 |
| COc1cccc(NC(=O)N[C@@H](CC(=O)N2CCC(N3Cc4ccccc4NC3=O)CC2)C(=O)N2CCC(N3CCCCC3)CC2)c1 [Example 150] | 7.00 to 8.00 |
| O=C(NCCc1ccccc1)N[C@@H](CC(=O)N1CCC(N2Cc3ccccc3NC2=O)CC1)C(=O)N1CCC(N2CCCCC2)CC1 [Example 138] | 6.00 to 7.00 |
| Cc1cccc(NC(=O)N[C@@H](CC(=O)N2CCC(N3Cc4ccccc4NC3=O)CC2)C(=O)N2CCC(N3CCCCC3)CC2)c1C [Example 151] | 6.00 to 7.00 |
| COc1ncc(CC(NC(=O)N2CCC(N3Cc4ccccc4NC3=O)CC2)C(=O)N2CCC(N3CCCCC3)CC2)cn1 (racemic) [Example 58, (±)-4-(2-Oxo-1,4-dihydro-2H-quinazolin-3-yl)-piperidine-1-carboxylic acid[2-[1,4′]bipiperidinyl-1′-yl-1-(2-methoxy-pyrimidin-5-ylmethyl)-2-oxo-ethyl]-amide] | < 6.00 |
| O=C(Nc1ccc(Cl)cc1C(F)(F)F)N[C@@H](CC(=O)N1CCC(N2Cc3ccccc3NC2=O)CC1)C(=O)N1CCC(N2CCCCC2)CC1 [Example 188] | 6.00 to 7.00 |
| Cc1nc(N[C@@H](CC(=O)N2CCC(N3Cc4ccccc4NC3=O)CC2)C(=O)N2CCC(N3CCCCC3)CC2)nc(N)c1N [Example 91, (L)-1-[1,4′]Bipiperidinyl-1′-yl-2-(4,5-diamino-6-methyl-pyrimidin-2-ylamino)-4-[4-(2-oxo-1,4-dihydro-2H-quinazolin-3-yl)-piperidin-1-yl]-butane-1,4-dione] | 6.00 to 7.00 |
| O=C(Nc1cccc(Cl)c1Cl)N[C@@H](CC(=O)N1CCC(N2Cc3ccccc3NC2=O)CC1)C(=O)N1CCC(N2CCCCC2)CC1 [Example 148] | 7.00 to 8.00 |
| O=C(Nc1cc(C(F)(F)F)ccc1Cl)N[C@@H](CC(=O)N1CCC(N2Cc3ccccc3NC2=O)CC1)C(=O)N1CCC(N2CCCCC2)CC1 [Example 167] | 6.00 to 7.00 |
| COc1ccc(CC(NC(=O)N2CCC(N3Cc4ccccc4NC3=O)CC2)C(=O)N2CCC(N3CCCCC3)CC2)cn1 (racemic) [Example 57, (±)-4-(2-Oxo-1,4-dihydro-2H-quinazolin-3-yl)-piperidine-1-carboxylic acid[2-[1,4′]bipiperidinyl-1′-yl-1-(6-methoxy-pyridin-3-ylmethyl)-2-oxo-ethyl]-amide] | 6.00 to 7.00 |
| O=C(Nc1cc(Cl)cc(Cl)c1)N[C@@H](CC(=O)N1CCC(N2Cc3ccccc3NC2=O)CC1)C(=O)N1CCC(N2CCCCC2)CC1 [Example 159] | 7.00 to 8.00 |
| O=C(Nc1cc(F)ccc1F)N[C@@H](CC(=O)N1CCC(N2Cc3ccccc3NC2=O)CC1)C(=O)N1CCC(N2CCCCC2)CC1 [Example 184] | 7.00 to 8.00 |
| CCc1cccc(NC(=O)N[C@@H](CC(=O)N2CCC(N3Cc4ccccc4NC3=O)CC2)C(=O)N2CCC(N3CCCCC3)CC2)c1 [Example 142] | 6.00 to 7.00 |
| O=C(Nc1ccccc1F)N[C@@H](CC(=O)N1CCC(N2Cc3ccccc3NC2=O)CC1)C(=O)N1CCC(N2CCCCC2)CC1 [Example 171] | 7.00 to 8.00 |
| Cc1cc(CC(NC(=O)N2CCC(N3Cc4ccccc4NC3=O)CC2)C(=O)OC2CCN(C)CC2)cc2cn[nH]c12 (centres unmarked) [Example 41c, 3-(7-Methyl-1H-indazol-5-yl)-2-{[4-(2-oxo-1,4-dihydro-2H-quinazolin-3-yl)-piperidine-1-carbonyl]-amino}-propionic acid 1-methyl-piperidin-4-yl ester] | > 8.00 |
| O=C(N[C@@H](CC(=O)N1CCC(N2Cc3ccccc3NC2=O)CC1)C(=O)N1CCC(N2CCCCC2)CC1)c1sc2ccccc2c1Cl [Example 125] | 6.00 to 7.00 |
| O=C(N[C@@H](CC(=O)N1CCC(N2Cc3ccccc3NC2=O)CC1)C(=O)N1CCC(N2CCCCC2)CC1)c1cc(C(F)(F)F)cc(C(F)(F)F)c1 [Example 107] | 6.00 to 7.00 |
| O=C(NC(CN1CCC(O)CC1)C(=O)N1CCC(N2CCCCC2)CC1)N1CCC(N2Cc3ccccc3NC2=O)CC1 (racemic) [Example 53, (±)-4-(2-Oxo-1,4-dihydro-2H-quinazolin-3-yl)-piperidine-1-carboxylic acid[2-[1,4′]bipiperidinyl-1′-yl-1-(4-hydroxy-piperidin-1-ylmethyl)-2-oxo-ethyl]-amide] | < 6.00 |
| O=C(N[C@@H](CC(=O)N1CCC(N2Cc3ccccc3NC2=O)CC1)C(=O)N1CCC(N2CCCCC2)CC1)Oc1ccccc1 [Example 130] | 6.00 to 7.00 |
| O=C(Nc1ccccc1Oc1ccccc1)N[C@@H](CC(=O)N1CCC(N2Cc3ccccc3NC2=O)CC1)C(=O)N1CCC(N2CCCCC2)CC1 [Example 136] | 6.00 to 7.00 |
